Where two headings read alike, the source gives them in different places.
Assays:
[1] = test system: P. aeruginosa; test: MIC by agar plate dilution method (CLSI); format: cell-based, Pseudomonas aeruginosa
From the text: (§1) P. aeruginosa strains isolated from patients with cystic fibrosis (CF) were obtained from Children's Hospital and Regional Medical Center (Seattle, Wash.). Clinical isolates of Escherichia coli and Staphylococcus aureus were obtained from The Jones Group Laboratories (JMI; North Liberty, Iowa) and The Clinical Microbiology Institute (CMI; Wilsonville, Oreg.). P. aeruginosa 27853, S. aureus 29213, and E. coli 25922 served as quality control strains^1 and were obtained from The America Type Culture Collection (ATCC; Manassas, Va.). P. aeruginosa ATCC 27853, a fosfomycin and tobramycin susceptible strain, was used in macromolecular biosynthesis and tobramycin uptake experiments. Stock cultures were maintained at −80° C. in Cation-Adjusted Mueller-Hinton Broth (CAMHB) (Remel; Lenexa, Kans.) supplemented with 20% glycerol (VWR: West Chester, Pa.). Cultures for routine use were grown on tryptic soy agar plates+5% sheeps blood (PML Microbiologicals Inc.; Wilsonville, Oreg.) and stored at 4° C.
(§2) MICs were determined by the agar plate dilution method according to CLSI guidelines (National Committee for Clinical Laboratory Standards. M7-A6. 6th ed. Villanova (Pa.): NCCLS, 2003; M100-S14. Villanova (Pa.): NCCLS, 2004).

[2] = test system: E. coli; test: MIC by agar plate dilution method (CLSI); format: cell-based, Escherichia coli
From the text: as §1, §2

[3] = test system: S. aureus; format: cell-based, Staphylococcus aureus
Description: (§3) Development of resistance after a single exposure to antibiotic was determined for both clinical and reference isolates of P. aeruginosa, S. aureus, and E. coli. Late Log-phase cultures were centrifuged at 1,400×g at room temperature for 20 min and the cell pellets resuspended in CAMHB. […] The culture plates were incubated at 37° C. for 48 h and the number of colonies on each plate was enumerated manually. The spontaneous mutation frequency (SMF) resulting in antibiotic resistance was calculated by dividing the number of bacteria growing at the defined antibiotic concentration by the number of bacteria in the inoculum (Martinex, J L, Antimicrob Agents Chemother 2000; 44 (1):1771-1777).

[4] = test system: P. aeruginosa; format: cell-based, Pseudomonas aeruginosa
Description: as §3

[5] = test system: Protein Synthesis in P. aeruginosa ATCC 27853; test: Macromolecular biosynthesis: 3H-amino acid incorporation; format: cell-based, Pseudomonas aeruginosa; settings: for % Inhibition Protein: at 2 h relative to no-drug control, single experiment
Description: Picataway, N.J.) and N-acetyl-D-Glucosamine (^3H-NAG) (GE Healthcare Bio-Sciences), respectively (Baum, E Z, Antimicrob Agents Chernother 2001; 45 (11): 3182-3188). A single colony of P. aeruginosa ATCC 27853 was inoculated into 10 mL of CAMHB and incubated for 16 h, at 37° C., 200 rpm in a shaking water bath. […] At various time points, 100 μl aliquots (triplicate) of culture were removed and added to 100 μl of 20% TCA (VWR) in 96-well flat bottom trays (VWR). Plates were incubated on crushed ice for 60 min to precipitate the incorporated ^3H-precursors. Samples were harvested onto glass fibre filters (GFC) (PerkinElmer; Waltham, Mass.). Filters were washed two times with 35 mL of normal saline to remove unincorporated isotope followed by one wash with 35 mL of 90% ETOH (VWR). Filters were dried under a lamp for 1 h to reduce remaining moisture and then sealed in bags containing 5 mL of scintillation cocktail (Betaplate Scint; PerkinElmer). Counts per minute (CPM) were determined using a Wallac MicroBeta Trilux (PerkinElmer). Mean CPM±standard deviation (SD) were determined for each treatment group. Background counts consisting of a media-only sample were subtracted from the no-drug and antibiotic treatment groups. The percent inhibition of incorporation was determined relative to the no-drug controls. The activities of the three drugs were compared by calculating the time to 50% inhibition (T1/2), and statistical differences at each time point were evaluated by the Analysis of Variance (ANOVA; GraphPad Prisma software package 3.03; GraphPad Software, Inc., San Diego, Calif.). Each curve represents 4 replicate experiments, each time point performed in triplicate.

[6] = test system: P. aeruginosa ATCC 27853; test: Time-kill experiments in CAMHB with 2% mucin; format: cell-based, Pseudomonas aeruginosa
Description: Time-kill experiments were performed according to a modified CLSI method (National Committee for Clinical Laboratory Standards. M-26A. Villanova (Pa.): NCCLS, 1999). […] Bacterial cultures and antibiotic(s) were incubated at 37° C. in a shaking water bath (200 rpm) and killing activity assessed at 0, 1, 2, 4, 6 and 24 h. Antibiotics that reduced the original inoculum by ≧3-Log10 were considered bactericidal. Antibiotics that reduced the original inoculum by ≦2-Log10 were considered bacteriostatic.

For tobramycin sulfate, which MIC ([1]; P. aeruginosa ATCC 27853) is on record?
The MIC was 0.5 µg/mL.

What about the MIC ([1]; P. aeruginosa C002) of the same substance?
The MIC was 0.5 µg/mL.

What about the MIC ([1]; P. aeruginosa C003) of the same substance?
Its MIC is 0.5 µg/mL.

And the MIC ([1]; P. aeruginosa C013)?
The MIC was 0.5 µg/mL.

And the MIC ([1]; P. aeruginosa C014)?
The MIC was 0.5 µg/mL.

And the MIC ([2]; E. coli ATCC 25922)?
Its MIC is 0.5 µg/mL.

And the MIC ([2]; E. coli C032)?
The MIC was 0.5 µg/mL.

What about the MIC ([2]; E. coli C036) of the same substance?
The MIC was 0.5 µg/mL.

And the MIC ([2]; E. coli C037)?
The MIC was 4 µg/mL.

And the MIC ([2]; E. coli C294)?
Its MIC is 0.5 µg/mL.

And the “Frequency of Resistance 4× MIC” value ([3]; S. aureus ATCC 29213, 4× MIC)?
The value was 1.6 × 10^−7.

And the “Frequency of Resistance 8× MIC” value ([3]; S. aureus ATCC 29213, 8× MIC)?
Its value is 3.9 × 10^−8.

What about the “Frequency of Resistance 16× MIC” value ([3]; S. aureus ATCC 29213, 16× MIC) of the same substance?
The value was <1.8 × 10^−10.

What about the “Frequency of Resistance 4× MIC” value ([3]; S. aureus C051, 4× MIC) of the same substance?
The value was 3.5 × 10^−6.

And the “Frequency of Resistance 8× MIC” value ([3]; S. aureus C051, 8× MIC)?
Its value is 1.5 × 10^−8.

And the “Frequency of Resistance 16× MIC” value ([3]; S. aureus C051, 16× MIC)?
Its value is <2.0 × 10^−10.

What about the “Frequency of Resistance 4× MIC” value ([3]; S. aureus C053, 4× MIC) of the same substance?
Its value is 2.0 × 10^−7.

And the “Frequency of Resistance 16× MIC” value ([3]; S. aureus C053, 16× MIC)?
The value was <2.3 × 10^−10.

And the “Frequency of Resistance 4× MIC” value ([3]; S. aureus C055, 4× MIC)?
The value was 3.8 × 10^−7.

What about the “Frequency of Resistance 8× MIC” value ([3]; S. aureus C055, 8× MIC) of the same substance?
The value was <4.3 × 10^−9.

What about the “Frequency of Resistance 16× MIC” value ([3]; S. aureus C055, 16× MIC) of the same substance?
Its value is <2.3 × 10^−10.

And the “Frequency of Resistance 4× MIC” value ([3]; S. aureus C057, 4× MIC)?
The value was 1.1 × 10^−6.

What about the “Frequency of Resistance 8× MIC” value ([3]; S. aureus C057, 8× MIC) of the same substance?
The value was <1.4 × 10^−10.

And the “Frequency of Resistance 16× MIC” value ([3]; S. aureus C057, 16× MIC)?
The value was <3.2 × 10^−10.

And the “Frequency of Resistance 4× MIC” value ([4]; P. aeruginosa ATCC 27853, 4× MIC)?
Its value is 3.0 × 10^−5.

And the “Frequency of Resistance 8× MIC” value ([4]; P. aeruginosa ATCC 27853, 8× MIC)?
Its value is 2.2 × 10^−7.

And the “Frequency of Resistance 16× MIC” value ([4]; P. aeruginosa ATCC 27853, 16× MIC)?
The value was 1.6 × 10^−8.

What about the “Frequency of Resistance 4× MIC” value ([4]; P. aeruginosa C002, 4× MIC) of the same substance?
Its value is 1.1 × 10^−5.

And the “Frequency of Resistance 8× MIC” value ([4]; P. aeruginosa C002, 8× MIC)?
Its value is 1.1 × 10^−7.

What about the “Frequency of Resistance 16× MIC” value ([4]; P. aeruginosa C002, 16× MIC) of the same substance?
Its value is 4.4 × 10^−8.

What about the “Frequency of Resistance 4× MIC” value ([4]; P. aeruginosa C003, 4× MIC) of the same substance?
The value was 4.2 × 10^−5.

What about the “Frequency of Resistance 8× MIC” value ([4]; P. aeruginosa C003, 8× MIC) of the same substance?
The value was 1.8 × 10^−7.

What about the “Frequency of Resistance 16× MIC” value ([4]; P. aeruginosa C003, 16× MIC) of the same substance?
The value was 7.2 × 10^−8.

What about the “Frequency of Resistance 4× MIC” value ([4]; P. aeruginosa C013, 4× MIC) of the same substance?
Its value is 1.4 × 10^−6.

What about the “Frequency of Resistance 8× MIC” value ([4]; P. aeruginosa C013, 8× MIC) of the same substance?
The value was 3.7 × 10^−6.

What about the “Frequency of Resistance 16× MIC” value ([4]; P. aeruginosa C013, 16× MIC) of the same substance?
The value was 8.2 × 10^−7.

And the “Frequency of Resistance 4× MIC” value ([4]; P. aeruginosa C014, 4× MIC)?
Its value is 1.3 × 10^−6.

What about the “Frequency of Resistance 8× MIC” value ([4]; P. aeruginosa C014, 8× MIC) of the same substance?
Its value is 1.1 × 10^−7.

What about the “Frequency of Resistance 16× MIC” value ([4]; P. aeruginosa C014, 16× MIC) of the same substance?
The value was 7.9 × 10^−7.

What about the “% Inhibition Protein” value ([5]; 0.8 μg/mL) of the same substance?
Its value is 2%.

What about the “time to 50% inhibition (T1/2) of protein synthesis” value ([5]; 1.6 μg/mL (FIG. 5)) of the same substance?
The value was over 3 h.

And the “% Inhibition Protein” value ([5]; 1.6 μg/mL)?
Its value is 6%.

What about the “% Inhibition Protein” value ([5]; 3.2 μg/mL) of the same substance?
Its value is 42%.

What about the “killing activity at 24 h” value ([6]; 24 h, FT4:1 16 μg/mL, fosfomycin 12.8 μg/mL, tobramycin 3.2 μg/mL, mucin, FIG. 4) of the same substance?
The value was “re-growth of the bacterial culture”.

And the killing activity ([6]; FT4:1 at 4×MIC (16 μg/mL), component weights fosfomycin 12.8 μg/mL, tobramycin 3.2 μg/mL, mucin, FIG. 4)?
The killing activity was “bacteriostatic killing”.

What about the “bacterial killing on increasing the concentration” value ([6]; increase from 2 μg/mL to 4 μg/mL (2-fold), FIG. 2) of the same substance?
The value was over 4 Log10.

And the “killing activity (bactericidal ≧3-Log10, bacteriostatic ≦2-Log10)” value ([6]; multiples of the MIC, FIG. 1-3)?
The value was “rapidly bactericidal”.

What about the “enhancement of bacterial killing in the presence of fosfomycin” value ([6]; tobramycin 3.2 μg/mL in the presence of 12.8 μg/mL fosfomycin, FIG. 4) of the same substance?
Its value is 3 Log10 CFU/mL.

Source: patent US20110230431A1, “FOSFOMYCIN/TOBRAMYCIN COMBINATIONS FOR THE TREATMENT AND PREVENTION OF OPHTHALMIC, OTOLOGICAL AND DERMATOLOGICAL INFECTIONS” (Gilead Sciences, Inc., priority 2008, published 2011)
